Test results reported in US5427922A (Takeda Chemical Industries, Ltd., priority 1992, dated 1995).
Substitutions are numbered along the chain they refer to. Blank lines part the entries; values can stand above or below the compound they belong to.

Legend:
[1] = system: full-length Ang II type 1 receptor from human placenta; test: Change in intracellular calcium ion concentration in CHOdhfr-/pHARp206 cells (Fura-2AM fluorescence); format: cell-based; details: final concentration 1 μM, 37° C.
Procedure: To each of two collagen-treated slide glasses (1×4 cm) in a 6 cm petri dish, 4 ml of an ASF104 medium (produced by Ajinomoto) containing 5% (v/v) FCS (fetal calf serum) was added, and 5×10^5 CHOdhfr- cells were seeded. After incubation at 37° C. in the presence of 5% carbon dioxide for one day, the medium was aspirated and twice washed with ASF104 medium. 5 μg of the above plasmid pHARp206 was dissolved in 50 μl of HBS buffer (8.0 g/l sodium chloride, 380 mg/l potassium chloride, 200 mg/l disodium monohydrogen phosphate, 5.9 g/l HEPES, 15 mg/l calcium chloride dihydrate, 10 mg/l magnesium chloride hexahydrate, pH 7.45). […]
After the above transformant cells CHOdhfr-/pHARp206 were twice washed with HEPES buffer (140 mM sodium chloride, 5 mM potassium chloride, 1 mM magnesium sulfate, 1 mM disodium monohydrogen phosphate, 1 mM calcium chloride, 25 mM glucose, 25 mM HEPES; pH 7.2), 4 ml of a HEPES buffer containing 4 μM Fura-2AM (Dojin Kagaku) was added, and the mixture was kept standing at 15° C. in the dark for 80 minutes. […] Fluorescence at a wavelength of 505 nm, generated upon excitation with ultraviolet rays of wavelengths of 340 nm and 380 nm, was measured.

[2] = system: ACE; details: at suppressive doses for a high concentration (10 μM) of Ang II; cited from earlier work
[3] = system: reactions of KCl, norepinephrine, isoproterenol, vasopressin, bradykinin, acetylcholine or 5-HT; details: at suppressive doses for a high concentration (10 μM) of Ang II; cited from earlier work
[4] = system: Ang II receptor; details: cited from earlier work
[5] = system: type 1 receptors; details: cited from earlier work
[6] = target: T1, Ang II type 1 receptor of human placental origin (Homo sapiens, UniProt P30556); test: Binding of radiolabeled Ang II (competition) using membrane fraction of CHO/pHARp306 cells; details: [125I]-Ang II, 22° C., 45 minutes
T1 sequence (P30556 1-359 Q187R/F204S/L205C/K232N/K240R/L268Q/C289W/R311K/Y312D/F313I): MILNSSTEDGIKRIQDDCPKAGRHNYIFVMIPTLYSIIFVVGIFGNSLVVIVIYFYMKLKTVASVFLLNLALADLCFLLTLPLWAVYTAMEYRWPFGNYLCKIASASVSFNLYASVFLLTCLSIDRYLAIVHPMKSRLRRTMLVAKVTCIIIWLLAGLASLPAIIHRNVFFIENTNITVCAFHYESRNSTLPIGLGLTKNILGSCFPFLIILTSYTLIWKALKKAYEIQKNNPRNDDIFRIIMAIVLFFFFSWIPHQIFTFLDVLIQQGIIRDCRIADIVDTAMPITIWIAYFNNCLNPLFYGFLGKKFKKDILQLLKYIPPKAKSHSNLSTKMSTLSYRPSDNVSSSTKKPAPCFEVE
Procedure: All measurements were performed in a series of three runs. […] An aliquot of membrane fraction equivalent to 10 μg of protein was suspended in a 0.1% (w/v) BSA solution containing 25 mM Tris (pH 7.6) and 5 mM magnesium chloride, to yield a 194 μl suspension. […] After 45 minutes of reaction, the reaction mixture was aspirated onto a glass filter, which was washed with 4 ml of ice-cooled Tris (pH 7.6), and the residual radioactivity on the glass filter was measured using a γ-ray counter. The final sample concentration was varied over a range of from 1 pM to 10 μM. In the measurement, the amount of non-specific binding was defined as 0%, and the maximum mount of binding in the absence of sample defined as 100%. With this regard, the -log (M) value of the sample concentration (M) resulting in 50% binding was defined as IC50 value.

[7] = target: T2, Ang II type 1 receptor from human placenta (Homo sapiens, UniProt P30556); test: Radio-labeled Ang II binding activity in animal cells (COS7/pHARp306) expressing full-length Ang II type 1 receptor gene from human placenta; details: 10 μM agonist or antagonist added; 100 pM [125I]-Ang II; room temperature, 60 minutes; control (none) 84,148 cpm
T2 sequence (P30556 1-359 Q187R/F204S/L205C/K232N/K240R/L268Q/C289W/R311K/Y312D/F313I): T1 sequence (P30556 1-359 Q187R/F204S/L205C/K232N/K240R/L268Q/C289W/R311K/Y312D/F313I)
Procedure: To each well of a 6 well petri dish, 2 ml of a DMEM medium (produced by DIFCO) containing 5% (v/v) FCS was added, and 5×10^4 COS7 cells were seeded. After incubation at 37° C. in the presence of 5% carbon dioxide for two days, the medium was aspirated and twice washed with DMEM medium.

[8] = target: T3, Ang II type 1 receptor of human heart origin (Homo sapiens, UniProt P30556); test: Binding of radiolabeled Ang II (competition) using membrane fraction of control CHO/pHARt306 cells; details: for Competition; IC50 [-log(M)]: membrane fraction of CHO/pHARt306 (human heart origin), [125I]-Ang II, 22° C., 45 minutes
T3 sequence (P30556 1-359): T1 sequence (P30556 1-359 Q187R/F204S/L205C/K232N/K240R/L268Q/C289W/R311K/Y312D/F313I) with R187Q, S204F, C205L, N232K, R240K, Q268L, W289C, K311R, D312Y, I313F
Procedure: All measurements were performed in a series of three runs. […] An aliquot of membrane fraction equivalent to 10 μg of protein was suspended in a 0.1% (w/v) BSA solution containing 25 mM Tris (pH 7.6) and 5 mM magnesium chloride, to yield a 194 μl suspension. […] After 45 minutes of reaction, the reaction mixture was aspirated onto a glass filter, which was washed with 4 ml of ice-cooled Tris (pH 7.6), and the residual radioactivity on the glass filter was measured using a γ-ray counter. The final sample concentration was varied over a range of from 1 pM to 10 μM. In the measurement, the amount of non-specific binding was defined as 0%, and the maximum mount of binding in the absence of sample defined as 100%. With this regard, the -log (M) value of the sample concentration (M) resulting in 50% binding was defined as IC50 value. A membrane fraction was also extracted from control CHO/pHARt306 cells in the same manner as above, and assayed using the same assay system.

[9] = target: T4, full-length Ang II type 1 receptor of human placental origin (Homo sapiens, UniProt P30556); test: Changes in intracellular inositol phosphate (IPs) concentration in CHO/pHARp306 cells; format: cell-based
T4 sequence (P30556 1-359 Q187R/F204S/L205C/K232N/K240R/L268Q/C289W/R311K/Y312D/F313I): T1 sequence (P30556 1-359 Q187R/F204S/L205C/K232N/K240R/L268Q/C289W/R311K/Y312D/F313I)
Procedure: (§1) To each well of a 12 well petri dish, a DMEM medium containing 10% (v/v) dialyzed-FCS and 35 μg/ml L-proline was added, and 1×10^5 CHO/pHAR306 cells were inoculated. One day later, the medium was replaced with the same medium but containing 1 μCi/ml [^3 H]-labeled inositol (Amersham), and cultivation was continued for 24 hours. The petri dish was twice washed with a PBS buffer (FLOW Laboratories) containing 0.2% (w/v) BSA and then kept standing for 30 minutes, after which it was kept standing at 37° C. for 30 minutes in the presence of the same buffer but containing 10 mM lithium chloride. […] When the reaction time exceeded 30 seconds, the reaction mixture was removed using an aspirator, after which 1 ml of a 5% (w/v) trichloroacetic acid solution was added to each well to stop the reaction. When the reaction time was 5 to 30 seconds, 1 ml of a 10% (w/v) trichloroacetic acid solution was injected directly to each well to stop the reaction. The [^3 H]-labeled inositol phosphate (IPs) was separated using ion exchange column AG 1-X8 (Bio-Rad Laboratories). […] The radioactivity of each fraction was determined using a liquid scintillation counter.

[10] = target: T4, full-length Ang II type 1 receptor of human placental origin; test: Ang II binding activity of isolated CHO cell clone (method of Example 9); details: CHO/pHARp306 clone
Procedure: After the mixture was thrice washed with TSMB buffer, cells were solubilized with 1N sodium hydroxide (1 ml), and their radioactivity was determined using a γ-ray counter.

[11] = target: T5, full-length Ang II type 1 receptor of human heart origin (Homo sapiens, UniProt P30556); details: CHO/pHARt306
T5 sequence (P30556 1-359): T1 sequence (P30556 1-359 Q187R/F204S/L205C/K232N/K240R/L268Q/C289W/R311K/Y312D/F313I) with R187Q, S204F, C205L, N232K, R240K, Q268L, W289C, K311R, D312Y, I313F
Procedure: as §1

[12] = target: T5, full-length Ang II type 1 receptor of human heart origin; details: CHO/pHARt306; remark: listed apart in the source
Procedure: (§2) To each well of a 24 well petri dish, a DMEM medium containing 10% (v/v) dialyzed FCS and 35 μg/ml L-proline was added, and 1×10^5 CHO/pHAR306 cells were inoculated. […] After the reaction mixture was removed using an aspirator, 500 μl of a 5% (w/v) trichloroacetic acid solution was added to each well to stop the reaction. The amount of cAMP was measured by EIA (cAMP enzyme immunoassay system, produced by Amersham).

[13] = target: T4, full-length Ang II type 1 receptor of human placental origin; details: 10 μM forskolin in place of Ang II; CHO/pHARp306
Procedure: as §2

[14] = system: type 2 receptors; details: cited from earlier work

Compound: endothelin 1: endothelin 1 (CSCSSLMDKECVYFCHLDIIW)
change in fluorescence (intracellular Ca ion concentration) [1]: no change occurred in fluorescence

Compound: CCCCc1nc(Cl)c(CO)n1Cc1ccc(-c2ccccc2-c2nn[nH]n2)cc1 [DuP753]
effect on ACE action [2]: no effect | effect on reactions of KCl, norepinephrine, isoproterenol, vasopressin, bradykinin, acetylcholine or 5-HT [3]: no effect | specificity of action on Ang II receptors ([4]; vascular wall, adrenal cortex and other organs): act specifically on Ang II receptors in the vascular wall, adrenal cortex and other organs to suppress Ang II action only | antagonism of type 1 receptors [5]: antagonistic

Compound: Ang III: amino acid number of Ang III is lower by 1 than that of Ang II; used as agonist
Competition; IC50 [-log(M)], column A (second; B in text) [6]: 9.07 -log(M) | Radioactivity (bound [125I]-labeled Ang II) [7]: 670 cpm | Competition; IC50 [-log(M)] [8]: 7.57 -log(M)

Compound: Ang II
total IPs production, dose response ([9]; 20 minutes after stimulation, final Ang II 1 pM to 10 μM, FIG. 7B): IPs production was suppressed in response to stimulation with high concentrations of Ang II | IPs production, time course ([9]; Ang II 100 nM, 37° C., FIG. 6): a transient rise in IP3 concentration occurred, followed by formation of IP2 and IP1 in this order | Radioactivity (bound [125I]-labeled Ang II) [7]: 676 cpm | affinity to Ang II [10]: high affinity | total IPs production, dose response ([11]; 20 minutes after stimulation, final Ang II 1 pM to 10 μM, FIG. 7A): IPs production was not suppressed even in the presence of high concentrations of Ang II | IPs production, time course ([11]; Ang II 100 nM, 37° C.): the same IPs production pattern as with CHO/pHARp306 cells | suppression of forskolin-stimulated cAMP production ([12]; 1 pM to 10 μM Ang II plus 10 μM forskolin, 10 minutes, FIG. 8A): cAMP production suppression depending on Ang II concentration

Compound: C=C[C@@]1(C)CC(=O)[C@]2(O)[C@@]3(C)[C@@H](O)CCC(C)(C)[C@@H]3[C@H](O)[C@H](OC(C)=O)[C@@]2(C)O1 [forskolin]
formation of cAMP [13]: about 80 pmol/well | formation of cAMP ([12]; 10 μM forskolin in place of Ang II): about 80 pmol/well

Compound: CCCCc1nc(Cl)c(CC(=O)[O-])n1Cc1ccccc1[N+](=O)[O-].[Na+] [CV2961]
Ang II receptor antagonist activity [4]: found to possess Ang II receptor antagonist activity

More lines, main results first:

Competition; IC50 [-log(M)], column A (second; B in text) [6]: 9.61 -log(M) | IC50 ([8]; read-out: Competition, IC50 [-log(M)] (converted)): 3.31e-10 M
Compound: CCOc1nc2cccc(C(=O)O)c2n1Cc1ccc(-c2ccccc2-c2nn[nH]n2)cc1 [CV-11974]

Competition; IC50 [-log(M)], column A (second; B in text) [6]: 5.49 -log(M) | Radioactivity (bound [125I]-labeled Ang II) [7]: 69,980 cpm | Competition; IC50 [-log(M)] [8]: < 6.00 -log(M)
Compound: Cc1cc(Cn2cnc3c2CC(C(=O)O)N(C(=O)C(c2ccccc2)c2ccccc2)C3)ccc1N (stereo not drawn) [PD123177]
antagonism of type 2 receptors [14]: antagonistic
